Test results published in publication PMC8989062 (Journal of medicinal chemistry, 2022).
Entries after “also recorded” stand apart in the source; their conditions may differ.

Columns and labels:
[1] = in vivo; cited from earlier work
[2] = system: BET BD1 and BD2 bromodomains; conditions: SPR; cited from earlier work
[3] = system: H3K122Ac (HAT activity of BRD4); assay: immunofluorescence staining of H3K122Ac in hSAECs; format: cell-based, human
IL-6 = assay: poly; conditions: for activity at 10 µM: Homo sapiens, read-out: Residual activity rate, IL-6 (%)
[4] = system: H3K122Ac (HAT activity of BRD4); assay: immunofluorescence staining of H3K122Ac in lung sections of mice; conditions: n = 5
BRD4 BD1 E151A mutant = BRD4 BD1 E151A mutant (Homo sapiens, UniProt O60885, E151A); assay: thermal shift assay; conditions: TSA, 5 μM protein
HIV = conditions: cited from earlier work
[5] = in vivo PK profiles in rats; conditions: rat
CIG5 = assay: poly; conditions: Homo sapiens, read-out: Residual activity rate, CIG5 (%)
[6] = system: poly(I:C)-induced BRD4-dependent acute airway inflammation; assay: murine model of poly; format: in vivo, C57BL/6J mice; conditions: mice, 10 mg/kg po
[7] = cited from earlier work

COc1cc(OC)c2c(=O)cc(-c3cc(C)c(OC[C@H](O)CN4CCN(C)CC4)c(C)c3)oc2c1 [ZL0516, (R)-2-(4-(2-hydroxy-3-(4-methylpiperazin-1-yl)propoxy)-3,5-dimethylphenyl)-5,7-di-methoxy-4H-chromen-4-one]
oral bioavailability F [1]: 35%

CC(=O)Nc1c(F)cc(C(=O)N[C@H]2CC[C@H](O)CC2)cc1O[C@@H](C)c1ccccc1 [GSK046]
selectivity BET BD2 over BD1 [2]: > 300 fold

COCc1nc2cnc3cc(-c4c(C)noc4C)c(OC[C@H]4CCNC4)cc3c2n1[C@H](C)c1ccccc1 [GSK778]
selectivity BET BD1 over BD2 [2]: > 130 fold

O=C(Nc1ccc(C(F)(F)F)cc1)Nc1ccc(S(=O)(=O)N2CCC[C@H]2CN2CCC(O)CC2)cc1 [Compound 53, (S)-1-(4-((2-((4-Hydroxypiperidin-1-yl)methyl)pyrrolidin-1-yl)-sulfonyl)phenyl)-3-(4-(trifluoromethyl)phenyl)urea]
poly(I:C)-induced H3K122Ac accumulation in hSAECs [3]: significantly blocked
fold more potent than compound 1, IL-6 (IL-6; ratio of IC50 values): 15.9 fold
fold more potent than compound 3, IL-6 (IL-6; ratio of IC50 values): 4.8 fold
poly(I:C)-induced H3K122Ac accumulation in lung tissue of mice [4]: significantly blocked

Cc1sc2c(c1C)C(c1ccc(Cl)cc1)=N[C@@H](CC(=O)OC(C)(C)C)c1nnc(C)n1-2 [Compound 3, reference compound]
poly(I:C)-induced H3K122Ac accumulation in hSAECs [3]: blocked
binding to E151A mutant of BRD4 BD1 compared with WT (BRD4 BD1 E151A mutant): maintained a similar binding activity
effect on latent HIV (HIV): activate latent HIV
poly(I:C)-induced H3K122Ac accumulation in lung tissue of mice [4]: blocked

O=C(Nc1ccc(C(F)(F)F)cc1)Nc1ccc(S(=O)(=O)N2CCC[C@H]2C(=O)Nc2ccccc2)cc1 [Compound 45, (S)-N-Phenyl-1-((4-(3-(4-(trifluoromethyl)phenyl)ureido)phenyl)-sulfonyl)pyrrolidine-2-carboxamide]
effect on HIV (HIV): epigenetically suppress HIV

O=C(Nc1ccc(C(F)(F)F)cc1)Nc1ccc(S(=O)(=O)N2CCC[C@H]2CO)cc1 [Compound 50, (S)-1-(4-((2-(Hydroxymethyl)pyrrolidin-1-yl)sulfonyl)phenyl)-3-(4 (trifluoromethyl)phenyl)urea]
activity at 10 µM (IL-6): 1.71 ± 0.13%

O=C(Nc1ccc(C(F)(F)F)cc1)Nc1ccc(S(=O)(=O)N2CCC[C@H]2CN2CCOCC2)cc1 [Compound 52, (S)-1-(4-((2-(Morpholinomethyl)pyrrolidin-1-yl)sulfonyl)phenyl)-3-(4-(trifluoromethyl)phenyl)urea]
poly(I:C)-induced H3K122Ac accumulation in hSAECs [3]: significantly blocked
improvement of oral bioavailability compared to compound 7 [5]: approximately 30 fold
binding to E151A mutant of BRD4 BD1 compared with WT (BRD4 BD1 E151A mutant): complete loss of its binding affinity
activity at 10 µM (IL-6): 0.35 ± 0.03%
activity at 10 µM (CIG5): 0.34 ± 0.025%
poly(I:C)-induced H3K122Ac accumulation in lung tissue of mice [4]: significantly blocked
poly(I:C)-induced BRD4-dependent acute airway inflammation, overall [6]: more efficacious
poly(I:C)-induced neutrophilic inflammation around small- and medium-sized airways (histology) [6]: completely inhibited
inflammatory cytokines (IL-6, KC, MCP-1, RANTES) in BALF ([6]; n = 5, 10 mg/kg): significantly attenuated; also recorded: blocked
inflammatory gene expression (IL-6, KC, ISG54, CIG5) in lung tissues ([6]; n = 5, 10 mg/kg): significantly attenuated; also recorded: blocked
total cells and neutrophils in BALF ([6]; n = 5, 10 mg/kg): significantly attenuated; also recorded: blocked

Cc1cc(/N=N/c2ccc(S(=O)(=O)NC3CCCC3)cc2)c(N)cc1O [Compound 7]
oral bioavailability [7]: 0.5%
AUC0–t ([7]; oral dose of 20 mg/kg): 104 ng·h/mL
Cmax ([7]; oral dose of 20 mg/kg): 36 ng/mL
